Literature values in US6462088B1, “Disinfecting preparation containing chlorine in alcohol” (priority 1998, dated 2002).

Settings: 25° C., aqueous solution; for E0 standard oxidation potential, Ref. b): Ullmann's Encyclopedia

Compound	E0 standard oxidation potential, Ref. a) (Rice and Gomez-Taylor)	E0 standard oxidation potential, Ref. b)
OCl [Hypochlorous acid]	1.49 V	1.50 V
Hypochlorite ion	–	0.90 V
